Patent publication US4452786A, “Condurango glycoside compounds, processes for their preparation, antitumor agents comprising them and compositions” (Zenyaku Kogyo Kabushiki Kaisha, priority 1980, dated 1984)

Columns and labels:
Ehrlich carcinoma = assay: Screening test against Ehrlich carcinoma, subcutaneous solid type, in mice (T/C of tumor weight on thirtieth day); type: in vivo, ddy male mice; details: intraperitoneally, once per day for ten days, average tumor weight on thirtieth day
Protocol: The activity of the compounds of the present invention against Ehrlich carcinoma was confirmed by the screening test mentioned below.
Ehrlich carcinoma was employed for the determination of the antitumor properties, and the tumor to be tested was of subcutaneous solid type.
The animal group to which the compounds of the present invention were administered consisted of seven mice, whereas the control group consisted of ten mice.
Six weeks old ddy male mice (body weight: 28-30 g) were employed except for the case where condurango glycoside Ao or Co was administered; in the latter case those weighing 20-26 g and being five weeks old were used.
The tumors were transplanted intraperitoneally in the mice. On the seventh day after the transplantation, the well grown cells of the tumors were taken out, and 1.5×10^6 cells (3.0×10^6 cells in the case where condurango glycoside Ao or Co was given) thereof was transplanted subcutaneously in the inguinal region of the mice to form solid tumors. At and after 24 hours after the transplantation, the compounds of the present invention dissolved in physiological saline solutions were administered to the mice intraperitoneally.
The volume of the respective solutions administered was 0.2 ml per mouse at one time, and the administration was continued for ten days at a rate of one time per day. Only physiological saline solutions were given to the mice of the control group.
On the thirtieth day after the transplantation, the tumors were taken out and measured to get the average weight of the tumors of the mice of the group to which the compounds of the present invention had been administered (T) and that of the control group (C) and to calculate the T/C (%).

[1] = Acute toxicity, intraperitoneal administration to mice, five days observation; type: in vivo; details: mouse, in vivo, ip, intraperitoneally, five weeks old ddy male mice
Text: (§1) Next, the acute toxicity of the compounds of the present invention is as follows.

ddy male mice = assay: as above; type: in vivo; details: intraperitoneally, five weeks old ddy male mice, 7200 min
Text: as §1

Compound | T/C (%) (Ehrlich carcinoma; 8 mg/kg × 10 times) | T/C (%) (Ehrlich carcinoma; 16 mg/kg × 10 times) | LD50 at 120 h [1] [mg/kg] | T/C (%) (Ehrlich carcinoma; 32 mg/kg × 10 times) | LD50 (ddy male mice) [mg/kg]
COC1CC(OC2CCC3(C)C(CCC4C3C(OC(=O)C=Cc3ccccc3)C(OC(C)=O)C3(C)C(C(C)=O)CCC43O)C2)OC(C)C1OC1CC(OC)C(OC2OC(C)C(OC3OC(CO)C(O)C(O)C3O)C(OC)C2O)C(C)O1 (stereo not drawn) [Condurango glycoside Ao, condurango glycoside Ao] | 32.1 | 27.3 | 75 | – | –
COC1CC(OC2CCC3(C)C(CCC4C3C(OC(=O)C=Cc3ccccc3)C(OC(C)=O)C35COC(C)(OC)C3CCC45O)C2)OC(C)C1OC1CC(OC)C(OC2OC(C)C(OC3OC(CO)C(O)C(O)C3O)C(OC)C2O)C(C)O1 (stereo not drawn) [20-O-methyl-condurango glycoside Do] | 16.5 | 11.6 | 603 | – | –
COC1CC(OC2CCC3(C)C(CCC4C3C(OC(=O)C=Cc3ccccc3)C(OC(C)=O)C35COC(C)(O)C3CCC45O)C2)OC(C)C1OC1CC(OC)C(OC2OC(C)C(OC3OC(CO)C(O)C(O)C3O)C(OC)C2O)C(C)O1 (stereo not drawn) [Condurango glycoside Do, condurango glycoside Do] | 29.0 | 53.8 | 630 | 9.5 | –
COC1CC(OC2CCC3(C)C(CCC4C3C(OC(=O)C=Cc3ccccc3)C(OC(C)=O)C35COC(C)(OC)C3CCC45O)C2)OC(C)C1OC1CC(OC)C(OC2OC(C)C(OC3OC(CO)C(O)C(O)C3O)C(OC)C2O)C(C)O1 (stereo not drawn) [20-Iso-O-methyl-condurango glycoside Do, 20-iso-O-methyl-condurango glycoside Do] | 38.1 | 26.3 | – | 18.0 | 642
COC1CC(OC2CCC3(C)C(CCC4C3C(OC(=O)C=Cc3ccccc3)C(OC(C)=O)C35COC6(C)OC43CCC65)C2)OC(C)C1OC1CC(OC)C(OC2OC(C)C(OC3OC(CO)C(O)C(O)C3O)C(OC)C2O)C(C)O1 (stereo not drawn) [Condurango glycoside Bo, condurango glycoside Bo] | 23.3 | 11.8 | 615 | 10.0 | –
COC1CC(OC2CCC3(C)C(CCC4C3C(OC(=O)C=Cc3ccccc3)C(OC(C)=O)C3(C)C(C(C)O)CCC43O)C2)OC(C)C1OC1CC(OC)C(OC2OC(C)C(OC3OC(CO)C(O)C(O)C3O)C(OC)C2O)C(C)O1 (stereo not drawn) [Condurango glycoside Co, condurango glycoside Co] | – | 30.8 | 375 | 20.1 | –
